Structures are written as SMILES. A value given as a limit tells only on which side of the number the result lay.

The target in this experiment is rhSYK (Homo sapiens, UniProt P43405). As to conditions: read-out: rhSYK Activity; class symbol; where two forms are listed, one symbol per form.
For `CC(O)(c1ncc(-c2cccc(Nc3nccc(C(F)(F)F)n3)c2)s1)C(F)F` (centres unmarked) [Example 4A-10], the IC50 is below 100 nM.
As for `OC(c1ncc(-c2cccc(Nc3nccc(C(F)(F)F)n3)c2)s1)(C1CCCCC1)C(F)(F)F` (centres unmarked) [Example 4A-11], the figure is 1000 to 10000 nM; as for `CC(O)(c1ccn(S(=O)(=O)c2ccccc2)c1)c1ncc(-c2cccc(Nc3nccc(C(F)(F)F)n3)c2)s1` (centres unmarked) [Example 4A-12], 100 to 1000 nM; as for `OC(c1ccc(Br)cn1)(c1ncc(-c2cccc(Nc3nccc(C(F)(F)F)n3)c2)s1)C(F)F` (centres unmarked) [Example 4A-13], 100 to 1000 nM.
To `CN(C)CC(C)(O)c1ncc(-c2cccc(Nc3nccc(C(F)(F)F)n3)c2)s1` (centres unmarked) [Example 4A-14] belongs 100 to 1000 nM; to `OC(c1ncc(-c2cccc(Nc3nccc(C(F)(F)F)n3)c2)s1)C1CCCC1` (centres unmarked) [Example 4A-15], 100 to 1000 nM.
As to `OC(c1ccoc1)c1ncc(-c2cccc(Nc3nccc(C(F)(F)F)n3)c2)s1` (centres unmarked) [Example 4A-17], the IC50 is below 100 nM.
To `OC(c1cccnc1)c1ncc(-c2cccc(Nc3nccc(C(F)(F)F)n3)c2)s1` (centres unmarked) [Example 4A-18] belongs 100 to 1000 nM.
To `CC(C)n1cc(C(O)c2ncc(-c3cccc(Nc4nccc(C(F)(F)F)n4)c3)s2)cn1` (centres unmarked) [Example 4A-20] belongs 100 to 1000 nM.
Take `CC(O)(c1cccnc1)c1ncc(-c2cccc(Nc3nccc(C(F)(F)F)n3)c2)s1` (centres unmarked) [Example 4A-21]: the IC50 is below 100 nM.
To `CC(O)(c1cnccn1)c1ncc(-c2cccc(Nc3nccc(C(F)(F)F)n3)c2)s1` (centres unmarked) [Example 4A-22] belongs below 100 nM; to `CC(O)(c1ncc(-c2cccc(Nc3nccc(C(F)(F)F)n3)c2)s1)C1CCC1` (centres unmarked) [Example 4A-23], below 100 nM.
To `CC(C)C(O)(c1ncc(-c2cccc(Nc3nccc(C(F)(F)F)n3)c2)s1)C(C)C` [Example 4A-24] belongs 100 to 1000 nM; to `CC(=O)OCCC(C)(O)c1ncc(-c2cccc(Nc3nccc(C(F)(F)F)n3)c2)s1` (centres unmarked) [Example 4A-25], 100 to 1000 nM; to `CCOC(=O)C1(C(C)(O)c2ncc(-c3cccc(Nc4nccc(C(F)(F)F)n4)c3)s2)CC1` (centres unmarked) [Example 4A-26], 100 to 1000 nM.
On to `OC(c1cccnc1)(c1nnco1)c1ncc(-c2cccc(Nc3nccc(C(F)(F)F)n3)c2)s1` (centres unmarked) [Example 4A-27], for which the IC50 lay in the range of 100 to 1000 nM.
In the case of `CCC(=O)C(O)(CC)c1ncc(-c2cccc(Nc3nccc(C(F)(F)F)n3)c2)s1` (centres unmarked) [Example 4A-28], the IC50 was in the range of 100 to 1000 nM.
As for `CC(O)(c1ccc(S(C)(=O)=O)s1)c1ncc(-c2cccc(Nc3nccc(C(F)(F)F)n3)c2)s1` (centres unmarked) [Example 4A-29], the figure is 100 to 1000 nM; as for `OC(c1ccccn1)(c1nccs1)c1ncc(-c2cccc(Nc3nccc(C(F)(F)F)n3)c2)s1` (centres unmarked) [Example 4A-30], 100 to 1000 nM.
As for `CC(O)(c1ncc(-c2cccc(Nc3nccc(C(F)(F)F)n3)c2)s1)C(F)(F)C(F)(F)C(F)(F)F` (centres unmarked) [Example 4A-31], the figure is 1000 to 10000 nM.
As for `COCC(C)(O)c1ncc(-c2cc(C)cc(Nc3nccc(C(F)(F)F)n3)c2)s1` (centres unmarked) [Example 4A-32], the figure is below 100 nM.
`Cc1cc(Nc2nccc(C(F)(F)F)n2)cc(-c2cnc(C(C)(O)CF)s2)c1` (centres unmarked) [Example 4A-33]: the IC50 is below 100 nM.
As for `Cc1cc(Nc2nccc(C(F)(F)F)n2)cc(-c2cnc(C(O)(CF)CF)s2)c1` [Example 4A-34], the figure is below 100 nM; as for `Cc1cc(Nc2nccc(C(F)(F)F)n2)cc(-c2cnc(C(C)(O)c3ncnn3C)s2)c1` (centres unmarked) [Example 4A-35], below 100 nM; as for `Cc1cc(Nc2nccc(C(F)(F)F)n2)cc(-c2cnc(C(C)(O)c3noc(C)n3)s2)c1` (centres unmarked) [Example 4A-36], below 100 nM.
To `Cc1cc(Nc2nccc(C(F)(F)F)n2)cc(-c2cnc(C(O)(C3CC3)C3CC3)s2)c1` [Example 4A-37] belongs below 100 nM; to `Cc1cc(Nc2nccc(C(F)(F)F)n2)cc(-c2cnc(C(O)(CO)CO)s2)c1` [Example 4A-38], below 100 nM; to `Cc1cc(Nc2nccc(C)n2)cc(-c2cnc(C(O)(CO)CO)s2)c1` [Example 4A-39], below 100 nM.
Consider `Cc1cc(Nc2nccc(C(F)(F)F)n2)cc(-c2cnc(C(O)CCC#N)s2)c1` (centres unmarked) [Example 4A-41], for which the IC50 is below 100 nM.
Regarding `C=CCCC(O)c1ncc(-c2cc(C)cc(Nc3nccc(C(F)(F)F)n3)c2)s1` (centres unmarked) [Example 4A-42], the IC50 is below 100 nM.
As to `C=CCCC(C)(O)c1ncc(-c2cc(C)cc(Nc3nccc(C(F)(F)F)n3)c2)s1` (centres unmarked) [Example 4A-43], the IC50 was below 100 nM.
To `Cc1cc(Nc2nccc(C(F)(F)F)n2)cc(-c2cnc(C(C)(O)CC(C)N)s2)c1` (centres unmarked) [Example 4A-45] belongs below 100 nM; to `Cc1cc(Nc2nccc(C(F)(F)F)n2)cc(-c2cnc(C(C)(O)CCCN)s2)c1` (centres unmarked) [Example 4A-46], below 100 nM; to `Cc1cc(Nc2nccc(C(F)(F)F)n2)cc(-c2cnc(C(C)(O)CCCC(=O)O)s2)c1` (centres unmarked) [Example 4A-47], below 100 nM.
To `COC(=O)C(C)(C)C(C)(O)c1ncc(-c2cc(C)cc(Nc3nccc(C(F)(F)F)n3)c2)s1` (centres unmarked) [Example 4A-48] belongs below 100 nM.
To `Cc1cc(Nc2nccc(C(F)(F)F)n2)cc(-c2cnc(C(O)(c3ccccn3)C(C)C)s2)c1` (centres unmarked) [Example 4A-49] belongs 100 to 1000 nM; to `COc1ccsc1C(C)(O)c1ncc(-c2cc(C)cc(Nc3nccc(C(F)(F)F)n3)c2)s1` (centres unmarked) [Example 4A-50], below 100 nM.
With `CC(=O)c1ccc(C(C)(O)c2ncc(-c3cc(C)cc(Nc4nccc(C(F)(F)F)n4)c3)s2)cc1` (centres unmarked) [Example 4A-51], the IC50 is below 100 nM.
On to `COC(=O)c1ccc(C(O)c2ncc(-c3cc(C)cc(Nc4nccc(C(F)(F)F)n4)c3)s2)cc1` (centres unmarked) [Example 4A-52], for which the IC50 lay in the range of 100 to 1000 nM.
As for `Cc1cc(Nc2nccc(C(F)(F)F)n2)cc(-c2cnc(C(C)(O)c3cccc(C(=O)O)c3)s2)c1` (centres unmarked) [Example 4A-53], the figure is below 100 nM; as for `Cc1cc(Nc2nccc(C(F)(F)F)n2)cc(-c2cnc(C(C)(O)c3ccc([N+](=O)[O-])cc3)s2)c1` (centres unmarked) [Example 4A-56], 100 to 1000 nM; as for `Cc1cc(Nc2nccc(C(F)(F)F)n2)cc(-c2cnc(C(C)(O)c3ccc(CC(=O)O)cc3)s2)c1` (centres unmarked) [Example 4A-58], below 100 nM.
To `Cc1cc(Nc2nccc(C(F)(F)F)n2)cc(-c2cnc(C(C)(O)Cc3ccc(C(=O)O)cc3)s2)c1` (centres unmarked) [Example 4A-61] belongs below 100 nM.
To `COC(OC)C(O)(c1ccccn1)c1ncc(-c2cc(C)cc(Nc3nccc(C(F)(F)F)n3)c2)s1` (centres unmarked) [Example 4A-62] belongs below 100 nM.
In the case of `Cc1cc(Nc2nccc(C(F)(F)F)n2)cc(-c2cnc(C(C)(O)c3cc(CC(=O)O)cs3)s2)c1` (centres unmarked) [Example 4A-63], the IC50 was below 100 nM.
To `COc1cc(C(C)(O)c2ncc(-c3cc(C)cc(Nc4nccc(C(F)(F)F)n4)c3)s2)ccc1C(=O)O` (centres unmarked) [Example 4A-64] belongs below 100 nM; to `Cc1cc(Nc2nccc(C(F)(F)F)n2)cc(-c2cnc(C(C)(O)c3cccc(OCC(=O)O)c3)s2)c1` (centres unmarked) [Example 4A-67], below 100 nM; to `Cc1cc(Nc2nccc(C(F)(F)F)n2)cc(-c2cnc(C(C)(O)c3ccc(Br)nc3)s2)c1` (centres unmarked) [Example 4A-70], below 100 nM.
As for `Cc1cc(Nc2nccc(C(F)(F)F)n2)cc(-c2cnc(C(C)(O)c3cncc(Br)c3)s2)c1` (centres unmarked) [Example 4A-71], the figure is below 100 nM; as for `COC(=O)c1ccc(C(C)(O)c2ncc(-c3cc(C)cc(Nc4nccc(C(F)(F)F)n4)c3)s2)cc1OC` (centres unmarked) [Example 4A-72], 100 to 1000 nM; as for `Cc1cc(Nc2nccc(C(F)(F)F)n2)cc(-c2cnc(C(C)(O)c3ccc(S(=O)(=O)N(C)C)cc3)s2)c1` (centres unmarked) [Example 4A-73], 100 to 1000 nM.
To `Cc1cc(Nc2nccc(C(F)(F)F)n2)cc(-c2cnc(C(C)(O)c3cnc4sc(C(=O)O)c(C)c4c3)s2)c1` (centres unmarked) [Example 4A-74] belongs below 100 nM; to `Cc1cc(Nc2nccc(C(F)(F)F)n2)cc(-c2cnc(C(C)(O)c3cccc(-c4cccc(C(=O)O)c4)c3)s2)c1` (centres unmarked) [Example 4A-75], below 100 nM.
Take `Cc1cc(Nc2nccc(C(F)(F)F)n2)cc(-c2cnc(C(C)(O)c3ccc(N4CC(C(=O)O)CC4=O)cc3)s2)c1` (centres unmarked) [Example 4A-78]: the IC50 was below 100 nM.
Regarding `COc1ccnc(Nc2cc(C)cc(-c3cnc(C(C)(O)c4ccc(C(=O)O)cc4)s3)c2)n1` (centres unmarked) [Example 4A-79], the IC50 is below 100 nM.
For `Cc1cc(Nc2nccc(C(F)(F)F)n2)cc(-c2cnc(C3(O)CCC3)s2)c1` [Example 4B-1], the IC50 was below 100 nM.
Take `CC1CCCC1(O)c1ncc(-c2cccc(Nc3nccc(C(F)(F)F)n3)c2)s1` (centres unmarked) [Example 4B-2]: the IC50 was below 100 nM.
To `CCOC(=O)N1C2CCC1CC(O)(c1ncc(-c3cccc(Nc4nccc(C(F)(F)F)n4)c3)s1)C2` (centres unmarked) [Example 4B-3] belongs 100 to 1000 nM.
As for `O=C(c1ccoc1)c1ncc(-c2cccc(Nc3nccc(C(F)(F)F)n3)c2)s1` [Example 4B-4], the figure is 100 to 1000 nM.
In the case of `O=C(c1ccon1)c1ncc(-c2cccc(Nc3nccc(C(F)(F)F)n3)c2)s1` [Example 4B-5], the IC50 was below 100 nM.
To `N#CCCC1CCCCC1(O)c1ncc(-c2cccc(Nc3nccc(C(F)(F)F)n3)c2)s1` (centres unmarked) [Example 4B-6] belongs 100 to 1000 nM; to `OC1(c2ncc(-c3cccc(Nc4nccc(C(F)(F)F)n4)c3)s2)CC2COCC(C1)N2Cc1ccccc1` (centres unmarked) [Example 4B-9], 1000 to 10000 nM; to `Cc1cc(Nc2nccc(C)n2)cc(-c2cnc(C3(O)C4CC5CC3CN(C5)C4)s2)c1` (centres unmarked) [Example 4B-17], 100 to 1000 nM.
To `Cc1cc(Nc2nccc(C(F)(F)F)n2)cc(-c2cnc(C3(O)CCCC4(OCCO4)C3(C)C)s2)c1` (centres unmarked) [Example 4B-28] belongs 100 to 1000 nM.
As for `Cc1cc(Nc2nccc(C(F)(F)F)n2)cc(-c2cnc(C3(O)CC4C(Br)CC3C4C(=O)O)s2)c1` (centres unmarked) [Example 4B-53], the figure is below 100 nM.
As for `Cc1cc(Nc2nccc(C(F)(F)F)n2)cc(-c2cnc(C3(O)CC4C(Br)CC3C4C(=O)O)s2)c1` (centres unmarked) [Example 4B-54], the IC50 was below 100 nM.
As to `Cc1cc(Nc2nccc(C(F)(F)F)n2)cc(-c2cnc(C(=O)CCC#N)s2)c1` [Example 4B-59], the IC50 is below 100 nM.
`Cc1cc(Nc2nccc(C(F)(F)F)n2)cc(-c2cnc(C(=O)CCC(=O)CCO)s2)c1` [Example 4B-62]: the IC50 was 100 to 1000 nM.

Values taken from patent US8551984B2, “Aminopyrimidines as SYK inhibitors” (Merck Sharp & Dohme Corp., priority 2009, dated 2013).
